In patent publication US5747504A, “Method of treating cardiac insufficiency using angiotensin-converting enzyme inhibitors” (priority 1984, dated 1998):

Experiments:
Assay type in all cases: in vivo
[1] = system: ACE in the heart; assay: Inhibition of ACE in the heart after oral treatment of spontaneously hypertensive rats
Protocol: It is known that converting enzyme inhibitors are capable of inhibiting the enzyme not only in the serum but also in various tissues, and especially also in the heart.
In contrast, with 30 mg/kg of N-(1-carbethoxy-3-phenyl-propyl)-S-alanyl-S-proline (enalapril) perorally, already no further significant inhibition is observed after more than 6 hours.

[2] = system: isolated heart; assay: Postganglionic sympathetic stimulation on the isolated heart after oral pretreatment; details: oral pretreatment with 1 mg/kg perorally, rabbits
From the text: Postganglionic sympathetic stimulation on the isolated heart leads, via increased catecholamine release, to an increase in heart rate and contractility and to a decrease in coronary blood flow. […] These effects act together to protect the incompetent heart.

[3] = system: isolated heart; assay: Effect of angiotensin I and bradykinin on coronary blood flow in the isolated heart after oral pretreatment; details: isolated heart of rabbits, guineapigs and rats
Protocol: Angiotensin I decreases whilst bradykinin increases the coronary blood flow in the isolated heart of rabbits, guineapigs and rats. […] The same effect can only be achieved with 30 mg/kg of enalapril.

[4] = oral pretreatment with 1 mg/kg perorally

SMILES | inhibition of the ACE in the heart at the end of treatment ([1]; chronic oral treatment for two weeks with 1 mg/kg) | duration of significant inhibition of the ACE in the heart ([1]; single oral dose of 1 mg/kg) | influence of postganglionic sympathetic stimulation on contractility [2] | influence of postganglionic sympathetic stimulation on coronary blood flow [2] | influence of postganglionic sympathetic stimulation on heart rate [2] | action of bradykinin on coronary blood flow [3, 4] | effect of angiotensin I on coronary blood flow [3, 4] | duration of significant inhibition of the ACE in the heart ([1]; 30 mg/kg perorally) | inhibition of the ACE in the heart at the end of treatment ([1]; chronic oral treatment for two weeks with 30 mg/kg perorally) | action of bradykinin on coronary blood flow ([3]; 30 mg/kg) | effect of angiotensin I on coronary blood flow ([3]; 30 mg/kg)
CCOC(=O)[C@H](CCc1ccccc1)N[C@@H](C)C(=O)N1[C@H](C(=O)O)C[C@@H]2CCC[C@@H]21 [compound of the formula II, N-(1-S-carbethoxy-3-phenyl-propyl)-S-alanyl-cis-endo-2-azabicyclo[3,3,0]octane-3-S-carboxylic acid] | 55% | > 24 h | unaffected | significantly reduces | significantly reduces | increases | significantly reduces | – | – | – | –
CCOC(=O)[C@H](CCc1ccccc1)N[C@@H](C)C(=O)N1CCC[C@H]1C(=O)O [enalapril, N-(1-carbethoxy-3-phenyl-propyl)-S-alanyl-S-proline, reference compound] | – | – | – | – | – | – | – | ≤ 6 h | no inhibition is observed | same effect | same effect
